Source: ChEMBL document CHEMBL1201862, “PubChem BioAssay data set” (2004)
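In this assay, cells in 96-well plates receive the compound at five concentrations for 48 hours. Endpoints are linearly interpolated between the surrounding concentrations. Here, GI50 denotes the concentration required for 50% inhibition of growth.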 Active and inactive are the calls of the source. Rule as the data show it: active = GI50 up to about 1.1 µM and inactive = higher. Starred links: 1 amine or outer side, 2 acyl side, 3 side chain; linkers in the order of their positions; H or OH if unused. Non-standard residues stand in square brackets, D forms with d. Residues, ends and D or L forms follow the SMILES beside them. X35 = C=CCC(O[*:1])C(=O)[*:2]; NMeV = CN[CH](C(=O)O)C(C)C; NMeA = CN[CH](C)C(=O)O; βAla = NCCC(=O)O

Assays:
Test in all cases: inhibition of tumour cell growth, NCI panel, 48 h
A498 = system: A498
BT-549 = system: BT-549
COLO 205 = system: COLO 205
HL-60 = system: HL-60
LOX IMVI = system: LOX IMVI
MCF7 = system: MCF7
MDA-MB-435 = system: MDA-MB-435
MDA-N = system: MDA-N
NCI-H23 = system: NCI-H23
OVCAR-5 = system: OVCAR-5
SF-539 = system: SF-539
SK-MEL-2 = system: SK-MEL-2
SK-MEL-5 = system: SK-MEL-5
SN12C = system: SN12C
SNB-19 = system: SNB-19
SNB-75 = system: SNB-75
SR = system: SR
U-251 = system: U-251
HCC 2998 = system: HCC 2998

Measured: GI50

COc1cc2c(cc1O)-c1c(OC)c(O)cc3c1C(C2)N(C)CC3 (stereo not given)
inactive: A498 > 100 µM | BT-549 > 100 µM | COLO 205 > 100 µM | HL-60 > 100 µM | LOX IMVI > 100 µM | MCF7 > 100 µM | MDA-MB-435 > 100 µM | MDA-N > 100 µM | NCI-H23 > 100 µM | OVCAR-5 > 100 µM | SF-539 > 100 µM | SK-MEL-2 > 100 µM | SK-MEL-5 > 100 µM | SN12C > 100 µM | SNB-19 > 100 µM | SNB-75 > 100 µM | SR > 100 µM | U-251 > 100 µM

CCOP(=O)(OCC)/C(=C/NC(=S)c1ccncc1)C(=O)OC
inactive: BT-549 > 100 µM | COLO 205 > 100 µM | HCC 2998 > 100 µM | HL-60 53.5 µM | LOX IMVI > 100 µM | MCF7 > 100 µM | MDA-MB-435 > 100 µM | MDA-N > 100 µM | NCI-H23 > 100 µM | OVCAR-5 > 100 µM | SF-539 > 100 µM | SK-MEL-2 > 100 µM | SK-MEL-5 > 100 µM | SN12C > 100 µM | SNB-19 > 100 µM | SR 4.48 µM | U-251 > 100 µM

C=CCC1OC(=O)CCNC(=O)C(C)N(C)C(=O)C(C(C)C)N(C)C(=O)C(C(C)CC)NC(=O)C2CCCN2C1=O (stereo not given) (cyclo([X35]PI[NMeV][NMeA][βAla]); configuration not given here)
inactive: BT-549 32 µM | COLO 205 > 100 µM | HCC 2998 2.25 µM | HL-60 2.56 µM | LOX IMVI 1.85 µM | MCF7 > 100 µM | MDA-MB-435 4.22 µM | MDA-N > 100 µM | NCI-H23 33.2 µM | OVCAR-5 > 100 µM | SF-539 45.1 µM | SK-MEL-2 9.08 µM | SK-MEL-5 2.44 µM | SN12C > 100 µM | SNB-19 > 100 µM | SNB-75 1.25 µM | SR 2.58 µM | U-251 49.5 µM

NC(Cc1cc(Br)c(O)c(Br)c1)C(=O)O (stereo not given)
inactive: A498 > 100 µM | BT-549 > 100 µM | COLO 205 > 100 µM | HL-60 > 100 µM | LOX IMVI > 100 µM | MCF7 > 100 µM | MDA-MB-435 > 100 µM | MDA-N > 100 µM | NCI-H23 > 100 µM | OVCAR-5 > 100 µM | SF-539 > 100 µM | SK-MEL-2 > 100 µM | SK-MEL-5 > 100 µM | SN12C > 100 µM | SNB-19 > 100 µM | SNB-75 > 100 µM | SR > 100 µM | U-251 > 100 µM

Cn1c(=S)c2nc(SCCN3CCCC3)[nH]c2n(C)c1=O
inactive: A498 > 100 µM | BT-549 > 100 µM | COLO 205 > 100 µM | HL-60 > 100 µM | LOX IMVI > 100 µM | MCF7 > 100 µM | MDA-MB-435 > 100 µM | MDA-N > 100 µM | NCI-H23 > 100 µM | OVCAR-5 > 100 µM | SF-539 > 100 µM | SK-MEL-2 > 100 µM | SK-MEL-5 > 100 µM | SN12C > 100 µM | SNB-19 > 100 µM | SNB-75 > 100 µM | SR > 100 µM | U-251 > 100 µM

CC(C)[C@H]1C(=O)O[B@-](F)(c2ccccc2)/[N+]1=C\N(C)C
inactive: BT-549 > 100 µM | COLO 205 > 100 µM | HCC 2998 > 100 µM | HL-60 > 100 µM | LOX IMVI > 100 µM | MCF7 > 100 µM | MDA-MB-435 > 100 µM | MDA-N > 100 µM | NCI-H23 > 100 µM | OVCAR-5 > 100 µM | SK-MEL-5 > 100 µM | SN12C > 100 µM | SNB-19 > 100 µM | SNB-75 > 100 µM | SR > 100 µM | U-251 > 100 µM

O=C1CCC2(CCO1)OCCO2
inactive: BT-549 > 100 µM | HCC 2998 > 100 µM | HL-60 > 100 µM | LOX IMVI > 100 µM | MCF7 > 100 µM | MDA-MB-435 > 100 µM | MDA-N > 100 µM | NCI-H23 > 100 µM | OVCAR-5 > 100 µM | SF-539 > 100 µM | SK-MEL-2 > 100 µM | SK-MEL-5 > 100 µM | SN12C > 100 µM | SNB-19 > 100 µM | SNB-75 > 100 µM | SR > 100 µM | U-251 > 100 µM

CCc1n[nH]c(=O)n1/N=C/c1c(O)ccc2ccccc12
inactive: BT-549 > 100 µM | COLO 205 > 100 µM | HCC 2998 > 100 µM | LOX IMVI > 100 µM | MCF7 > 100 µM | MDA-MB-435 > 100 µM | MDA-N > 100 µM | NCI-H23 > 100 µM | OVCAR-5 > 100 µM | SF-539 > 100 µM | SK-MEL-2 > 100 µM | SK-MEL-5 > 100 µM | SN12C > 100 µM | SNB-19 > 100 µM | SNB-75 > 100 µM | SR > 100 µM | U-251 > 100 µM

N#CC(C/C=C/c1ccccc1)NNC(=O)c1c(Cl)c(Cl)c(Cl)c(Cl)c1-c1nc2cc(C(=O)c3ccccc3)ccc2[nH]1 (stereo not given)
inactive: A498 9.23 µM | BT-549 20.7 µM | COLO 205 15 µM | HL-60 7.57 µM | LOX IMVI 13.5 µM | MCF7 7.94 µM | MDA-MB-435 4.11 µM | MDA-N 3.24 µM | NCI-H23 17.9 µM | OVCAR-5 28.9 µM | SF-539 9.86 µM | SK-MEL-2 17.5 µM | SK-MEL-5 10.2 µM | SN12C 14.8 µM | SNB-19 14.8 µM | SNB-75 17.4 µM | SR 6.58 µM | U-251 12.5 µM

COc1cc(C2C(Cl)C(=O)N2c2ccc(Br)cc2)cc(I)c1O (stereo not given)
inactive: A498 > 100 µM | BT-549 45.1 µM | COLO 205 > 100 µM | HL-60 34 µM | LOX IMVI 6.04 µM | MCF7 87.9 µM | MDA-MB-435 47.5 µM | MDA-N 36.6 µM | NCI-H23 52.8 µM | OVCAR-5 87.7 µM | SF-539 > 100 µM | SK-MEL-2 65.8 µM | SK-MEL-5 43.2 µM | SN12C 68.5 µM | SNB-19 73.5 µM | SNB-75 37.8 µM | SR 29.2 µM | U-251 > 100 µM

COc1c(-c2ccccc2)oc2c(CP(=O)(OC)OC)cccc2c1=O
inactive: A498 > 100 µM | BT-549 41.1 µM | COLO 205 > 100 µM | HCC 2998 > 100 µM | MCF7 > 100 µM | MDA-MB-435 > 100 µM | MDA-N > 100 µM | NCI-H23 68.2 µM | OVCAR-5 > 100 µM | SF-539 > 100 µM | SK-MEL-2 > 100 µM | SK-MEL-5 > 100 µM | SN12C > 100 µM | SR > 100 µM | U-251 > 100 µM
